From US20230416329A1, “A PEPTIDE WITH DISULFIDE BONDS AND INHIBITORY ACTIVITY AGAINST SERINE PROTEASES, DERIVED HYBRID PEPTIDES THEREOF, AND USES THEREOF” (INSTITUTE OF MATERIA MEDICA , CHINESE ACADEMY OF MEDICAL …, priority 2020, published 2023)
Bridge positions count the residues as written; N and C are the ends. Ends that are not written are not given here.

Key:
[1] = tested on: P407-induced hyperlipidemia mice; test: Subcutaneous injection of PCSK9 inhibitory peptide, serum total cholesterol in P407-induced hyperlipidemia mice; type: in vivo, mouse; conditions: for TC 15 min / TC 30 min / TC 60 min / TC 90 min / TC 120 min: serum, subcutaneous 2 μmol/kg, mean ± sd; for TC 15 min: 15 min after administration; for TC 30 min: 30 min after administration; for TC 60 min: 60 min after administration; for TC 90 min: 90 min after administration; for serum total cholesterol (TC) level after subcutaneous injection (in words): 2 μmol/kg single s.c., P407-induced hyperlipidemia mice; for TC 120 min: 120 min after administration
Protocol: The experimental peptide sample was prepared using PEG400 with a final concentration of […], and the final concentration of PEG400 is 20% (w/v). Normal ICR mice were fasted overnight with water ad libitum. The next day, all of the mice were randomly divided into model control group (Con) and polypeptide administration group (2 μmol/kg) according to body weight. Then, all of the mice were intraperitoneally injected with P407 (500 mg/kg) and fed with feed 2 hours later. Six mice were taken as a normal control group (Nor). After 24 hours, the mice in Con were subcutaneously injected with saline containing 20% PEG400, and the mice in the treatment group were given peptides. Then, the blood was taken at different time points after administration to determine the serum total cholesterol (TC) level. In consideration of the complexity of factors affecting serum LDL-C levels, especially the differences between single and long-term administration, the in vivo activity of PCSK9 inhibitory peptide is mainly observed for changes in serum TC levels.

[2] = molecular target: T1, interaction of PCSK9-LDLR (Homo sapiens, UniProt Q8NBP7); test: PCSK9-LDLR in vitro binding assay (inhibitory rate); conditions: for inhibitory activity on the interaction between PCSK9 and LDLR (in words): in vitro
T1 construct: purchased MBL Company, Beijing, China CY-8150
Protocol: Polypeptide PCSK9_1-14 (SEQ ID NOs: 210-223) is dissolved in pure water or DMSO. 85 μL reaction buffer, 5 μL 1 mM polypeptide sample and 10 μL 750 ng/mL PCSK9 protein was pre-incubated at room temperature for 20 minutes before being added to a 96 well plate. The OD450/540 nm value was measured according to the instructions of the PCSK9-LDLR in Vitro Binding Assay Kit (CY-8150, MBL Company, Beijing, China). Solvent control: replace polypeptide with 5 μL solvent. In 100 μL reaction system, the final concentration of the polypeptide and PCSK9 is 50 μM and 75 ng/mL, respectively.
Inhibition rate of polypeptide (%)=(OD450/540 nm(solvent control)−OD450/540 nm (sample))/OD450/540 nm(solvent control)×100

Substance	TC 15 min [1] [µg/mL]	TC 30 min [1] [µg/mL]	TC 60 min [1] [µg/mL]	TC 90 min [1] [µg/mL]	inhibitory activity on the interaction between PCSK9 and LDLR (in words) [2]	also measured
CGRATKSIPPICFGTVFTSWEEALDWV (cysteine pairing not given here)	3466 ± 662	3490 ± 741	3294 ± 649	3265 ± 678	good inhibitory activity on the interaction between PCSK9 and LDLR	inhibitory activity on the interaction between PCSK9 and LDLR (in words) ([2]; listed as SEQ ID NO: 212): good inhibitory effects in vitro
ICTASIPPICQGTVFTSWEEALDWV (cysteine pairing not given here)	2885 ± 769	2673 ± 724	2695 ± 699	2605 ± 759	good inhibitory activity on the interaction between PCSK9 and LDLR	inhibitory activity on the interaction between PCSK9 and LDLR (in words) ([2]; listed as SEQ ID NO: 227): good inhibitory effects in vitro
PCSK9_8: Pep2-8 analogue containing the anti-trypsin peptide scaffold BT9 (Table 23) (TVFTSGCGRATKSIPPICFSWEEYLDWV; disulfide 7-18 (inferred))	2269 ± 489	2216 ± 465	2074 ± 470	2037 ± 509	good inhibitory activity on the interaction between PCSK9 and LDLR	inhibitory activity on the interaction between PCSK9 and LDLR (in words) ([2]; listed as SEQ ID NO: 217): good inhibitory effects in vitro
PCSK9_13: Pep2-8 analogue of Table 23 (GTNEALDNNCGRATKSIPPICFTVFTS; disulfide 10-21 (inferred))						Inhibitory rate on the interaction of PCSK9-LDLR ([2]; sample 50 μM, PCSK9 75 ng/mL): 15.8 ± 10.1%
Phe-Cys-Thr-Tyr-Ser-Ile-Pro-Pro-Gln-Cys-Tyr-Gly-Gly-Thr-Val-Phe-Thr-Ser-Trp-Glu-Glu-Ala-Leu-Asp-Trp-Val (FCTYSIPPQCYGGTVFTSWEEALDWV; disulfide 2-10 (inferred)) [PCSK9_3CH]	3509 ± 1031	3828 ± 774	3930 ± 1509	3435 ± 838	good inhibitory activity on the interaction between PCSK9 and LDLR	inhibitory activity on the interaction between PCSK9 and LDLR (in words) ([2]; listed as SEQ ID NO: 226): good inhibitory effects in vitro
Thr-Val-Phe-Thr-Ser-Gly-Arg-Cys-Thr-Lys-Ser-Ile-Pro-Pro-Ile-Cys-Phe-Trp-Glu-Glu-Tyr-Leu-Asp-Trp-Val (TVFTSGRCTKSIPPICFWEEYLDWV; disulfide 8-16 (inferred)) [PCSK9_9]		3143 ± 842	3516 ± 914	3409 ± 970	good inhibitory activity on the interaction between PCSK9 and LDLR	serum total cholesterol (TC) level after subcutaneous injection (in words) [1]: reduced serum TC level; serum total cholesterol (TC) level after subcutaneous injection (in words) ([1]; listed as SEQ ID NO: 218): excellent lowering lipid (total cholesterol) activities in vivo; TC 120 min [1]: 327.4 ± 90.4 mg/dL; inhibitory activity on the interaction between PCSK9 and LDLR (in words) ([2]; listed as SEQ ID NO: 218): good inhibitory effects in vitro
Thr-Val-Phe-Thr-Ser-Gly-Cys-Gly-Arg-Ala-Thr-Lys-Ser-Ile-Pro-Pro-Ile-Cys-Phe-Trp-Glu-Glu-Tyr-Leu-Asp-Trp-Val (TVFTSGCGRATKSIPPICFWEEYLDWV; disulfide 7-18 (inferred)) [PCSK9_7]		3398 ± 990	3618 ± 954	3461 ± 937	good inhibitory activity on the interaction between PCSK9 and LDLR	TC 120 min [1]: 337.6 ± 95.8 mg/dL; inhibitory activity on the interaction between PCSK9 and LDLR (in words) ([2]; listed as SEQ ID NO: 216): good inhibitory effects in vitro
Thr-Val-Phe-Thr-Ser-Gly-Ile-Cys-Thr-Ala-Ser-Ile-Pro-Pro-Ile-Cys-Gln-Trp-Glu-Glu-Tyr-Leu-Asp-Trp-Val (TVFTSGICTASIPPICQWEEYLDWV; disulfide 8-16 (inferred)) [PCSK9_9EC]	2789 ± 797	2744 ± 909	2676 ± 783	2657 ± 838	good inhibitory activity on the interaction between PCSK9 and LDLR	inhibitory activity on the interaction between PCSK9 and LDLR (in words) ([2]; listed as SEQ ID NO: 233): good inhibitory effects in vitro
Thr-Val-Phe-Thr-Ser-Gly-Phe-Cys-Thr-Tyr-Ser-Ile-Pro-Pro-Gln-Cys-Tyr-Gly-Trp-Glu-Glu-Tyr-Leu-Asp-Trp-Val (TVFTSGFCTYSIPPQCYGWEEYLDWV; disulfide 8-16 (inferred)) [PCSK9_9CH]	3727 ± 1154	4212 ± 753	3658 ± 664	2891 ± 710	good inhibitory activity on the interaction between PCSK9 and LDLR	inhibitory activity on the interaction between PCSK9 and LDLR (in words) ([2]; listed as SEQ ID NO: 232): good inhibitory effects in vitro
Thr-Val-Phe-Thr-Ser-Trp-Glu-Glu-Ala-Leu-Asp-Trp-Val-Cys-Gly-Arg-Ala-Thr-Lys-Ser-Ile-Pro-Pro-Ile-Cys-Phe (TVFTSWEEALDWVCGRATKSIPPICF; disulfide 14-25 (inferred)) [PCSK9_2]		3079 ± 1081	3178 ± 1039	3078 ± 1044	good inhibitory activity on the interaction between PCSK9 and LDLR	TC 120 min [1]: 295.5 ± 95.4 mg/dL; inhibitory activity on the interaction between PCSK9 and LDLR (in words) ([2]; listed as SEQ ID NO: 211): good inhibitory effects in vitro
Thr-Val-Phe-Thr-Ser-Trp-Glu-Glu-Ala-Leu-Asp-Trp-Val-Gly-Ile-Cys-Thr-Ala-Ser-Ile-Pro-Pro-Ile-Cys-Gln (TVFTSWEEALDWVGICTASIPPICQ-OH; disulfide 16-24 (inferred)) [PCSK9_2EC]	2954 ± 455	2859 ± 535	2853 ± 487	2757 ± 475	good inhibitory activity on the interaction between PCSK9 and LDLR	inhibitory activity on the interaction between PCSK9 and LDLR (in words) ([2]; listed as SEQ ID NO: 225): good inhibitory effects in vitro
Thr-Val-Phe-Thr-Ser-Trp-Glu-Glu-Ala-Leu-Asp-Trp-Val-Gly-Phe-Cys-Thr-Tyr-Ser-Ile-Pro-Pro-Gln-Cys-Tyr-Gly (TVFTSWEEALDWVGFCTYSIPPQCYG-OH; disulfide 16-24 (inferred)) [PCSK9_2CH]	2772 ± 762	2586 ± 700	2737 ± 762	2489 ± 760	good inhibitory activity on the interaction between PCSK9 and LDLR	inhibitory activity on the interaction between PCSK9 and LDLR (in words) ([2]; listed as SEQ ID NO: 224): good inhibitory effects in vitro
Trp-Glu-Glu-Ala-Leu-Asp-Trp-Val-Cys-Gly-Arg-Ala-Thr-Lys-Ser-Ile-Pro-Pro-Ile-Cys-Phe-Gly-Thr-Val-Phe-Thr-Ser (WEEALDWVCGRATKSIPPICFGTVFTS; disulfide 9-20 (inferred)) [PCSK9_5]	3050 ± 524	3236 ± 542	3089 ± 523	2980 ± 591	good inhibitory activity on the interaction between PCSK9 and LDLR	serum total cholesterol (TC) level after subcutaneous injection (in words) [1]: reduced serum TC level; serum total cholesterol (TC) level after subcutaneous injection (in words) ([1]; listed as SEQ ID NO: 214): excellent lowering lipid (total cholesterol) activities in vivo; inhibitory activity on the interaction between PCSK9 and LDLR (in words) ([2]; listed as SEQ ID NO: 214): good inhibitory effects in vitro
